Experimental data published in article PMC4287437, “Novel Inhibitors Induce Large Conformational Changes of GAB1 Pleckstrin Homology Domain and Kill Breast Cancer Cells” (PLoS Computational Biology, 2015).
Where “and” joins values, the source holds several entries; their conditions need not be identical. Identical values can stand only once.

Assays:
phospho-Tyr627 GAB1 = test: Inhibition of GAB1 Y627 phosphorylation in T47D cells; type: cell-based, human; settings: 20 µM, 4 hr, HGF stimulated
Experimental: For all biological assays, hit compounds were added at 20 µM concentration directly into the culture media of the cells for 4 hr following a 16 hr incubation of T47D cells without FBS. Cells were stimulated with HGF for 20 min at 50 ng/ml. Following this treatment, cells were lysed as previously published and equal amounts of total cell lysate were loaded on a pSer^312-IRS-1/Total IRS-1 Meso Scale Discovery plate as described by the manufacturer. The plate was read using a Sector Imager 2400A instrument (Meso Scale Discovery protein profiling system, Gaithersburg, MD). For the measurement of GAB1 phosphorylation, T47D cells were treated as for the phosphorylation of IRS1 evaluation. […] Each experiment was performed at least three times.

human GAB1 PH domain [1] = biological target: T1, human GAB1 PH domain (Homo sapiens, UniProt Q13480); test: SPR direct binding to GAB1 PH domain; settings: for Kd: read-out: KD GAB1; for Kd / KD GAB1: SPR, immobilized PH domain GST-fusion, NB = No Binding; for Exp. ΔGbind: GAB1, derived from experimental KD (or Ki)
T1 sequence (Q13480 5-116 limits assumed): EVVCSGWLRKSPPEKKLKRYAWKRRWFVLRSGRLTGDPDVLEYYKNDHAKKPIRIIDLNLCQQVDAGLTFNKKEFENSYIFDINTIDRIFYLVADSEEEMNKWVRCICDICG
Experimental: (§3) Binding assays were performed using a Biacore 2000 instrument with the Biacore Control Software v3.2 and BIAevaluation v4.1 analysis software (Biacore, Piscataway, NJ) as previously described [51]. Briefly, the PH domain GST-fusion proteins were immobilized on a CM5 Sensorchip (Biacore BR-1000-12) using Biacore's Amine Coupling Kit (Biacore BR-1000-50) to a level of 10,000 Response units (RUs). Small molecule analytes at concentrations ranging from one tenth to ten times the predicted K D were injected at a high flow rate (30 µL/min). Dimethylsulfoxide (DMSO) concentrations in all samples and running buffer were 1% (v/v) or less. For the competitive binding assays and K i determination, PtdIns(3,4,5)P3-biotin labeled liposomes (Echelon Biosciences, Salt Lake City, UT) and SA chips were used with increasing concentrations of the compound tested. We did triplicate SPR assays for each concentration.

human IRS1 PH domain = biological target: T2, human IRS1 PH domain (Homo sapiens, UniProt P35568); test: SPR direct binding to IRS1 PH domain; settings: for Kd: read-out: KD IRS1; for Exp. ΔGbind: IRS1, derived from experimental KD
T2 sequence (P35568 12-115 limits assumed): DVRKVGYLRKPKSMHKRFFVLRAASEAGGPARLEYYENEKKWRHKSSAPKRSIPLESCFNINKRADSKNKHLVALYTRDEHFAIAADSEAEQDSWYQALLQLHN
Experimental: as §3

MDA-MB-231 = test: Cellular proliferation (MTT) assay, MDA-MB-231; type: cell-based, human; settings: for IC50: 4 days growth, MTT, IA = Inactive; for toxicity to MDA-MB-231 at 100 µM: data not shown
Experimental: (§1) T47D and MDA-MB-231 cells were maintained in bulk culture in Dulbecco's modified Eagle medium (DMEM) supplemented with 10% heat-inactivated fetal bovine serum (FBS), 4.5 g/L glucose, 100 U/mL penicillin and […] streptomycin in a 5% CO2 atmosphere. MCF-10A cells were maintained in MEGM with other conditions same as the cancer cell lines. […] Cells were confirmed to be mycoplasma free by testing them with an ELISA kit (Roche-Boehringer Mannheim, Indianapolis, IN). Our hit compounds were freshly prepared in DMSO at a stock concentration of 10 mM. For the evaluation of cellular proliferation, a standard 96-well micro-cytotoxicity assay was performed as described in reference. Briefly, the assay was set up by plating cells at 5,000–10,000 cells per well (depending on cell doubling time) for a growth period of 4 days. The identified hits were added directly to the media, dissolved in DMSO at various concentrations ranging from 1 to 200 µM. The endpoint was spectrophotometric determination of the reduction of 3-(4,5-dimethylthiazol-2-yl)-2,5-diphenyltetrazolium bromide. All assays were performed in triplicates.

human GAB1 PH domain [2] = biological target: T1, human GAB1 PH domain; test: SPR competitive binding (PtdIns(3,4,5)P3-biotin liposomes), Ki, GAB1 PH domain; settings: read-out: Ki GAB1, cells marked * (Ki measurement)
Experimental: as §3

T47D = test: Cellular proliferation (MTT) assay, T47D; type: cell-based, human; settings: for IC50: 4 days growth, MTT, IA = Inactive; for toxicity to T47D at 100 µM: data not shown
Experimental: as §1

MCF-10A = test: Cellular proliferation assay, MCF-10A non-tumorigenic cells; type: cell-based, human; settings: data not shown
Experimental: (§2) Two human breast cancer cell lines and one normal breast cell line were used for this study: T47D ductal breast epithelial tumor cell line, MDA-MB-231 epithelial tumor cell line and MCF-10A non-tumorigenic epithelial cell line (American Type Culture Collection, Rockville, MD). T47D and MDA-MB-231 cells were maintained in bulk culture in Dulbecco's modified Eagle medium (DMEM) supplemented with 10% heat-inactivated fetal bovine serum (FBS), 4.5 g/L glucose, 100 U/mL penicillin and […] streptomycin in a 5% CO2 atmosphere. MCF-10A cells were maintained in MEGM with other conditions same as the cancer cell lines. Cells were passaged using 0.25% trypsin and 0.02% EDTA. Cells were confirmed to be mycoplasma free by testing them with an ELISA kit (Roche-Boehringer Mannheim, Indianapolis, IN). Our hit compounds were freshly prepared in DMSO at a stock concentration of 10 mM. For the evaluation of cellular proliferation, a standard 96-well micro-cytotoxicity assay was performed as described in reference. Briefly, the assay was set up by plating cells at 5,000–10,000 cells per well (depending on cell doubling time) for a growth period of 4 days. The identified hits were added directly to the media, dissolved in DMSO at various concentrations ranging from 1 to 200 µM. […]

MDA-MB-468 cell line = test: Cellular proliferation assay, MDA-MB-468; type: cell-based; settings: cell marked ** in MDA-MB-231 column: MDA-MB-468 cell line used
Experimental: as §2

GAB2 PH domain = GAB2 PH domain (Homo sapiens, UniProt Q9UQC2); test: Follow-up binding to GAB2 PH domain; settings: follow-up experiments
[3] = SPR, immobilized PH domain GST-fusion, NB = No Binding

GAB2 PH domain, sequence (Q9UQC2 6-117 limits assumed): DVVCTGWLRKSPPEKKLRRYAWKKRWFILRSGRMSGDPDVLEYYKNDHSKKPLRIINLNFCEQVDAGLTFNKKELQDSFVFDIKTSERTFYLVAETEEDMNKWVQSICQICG

| Compound | Kd (human GAB1 PH domain [1]) | Kd (human IRS1 PH domain; [3]) | IC50 (MDA-MB-231) | IC50 (T47D) | % pGAB1 inhibition (phospho-Tyr627 GAB1) | also measured |
| --- | --- | --- | --- | --- | --- | --- |
| CCCCCCCCCCCCCCCCCCOC[C@H](COP(=O)(O)OC1C(O)[C@@H](O)C(O)C[C@H]1O)OC (stereo partly shown) [DPIEL, reference compound] | 2.8 µM | – | – | – | 72% | – |
| O=S(=O)(NCc1csc2ccc(Cl)cc12)c1cc(S(=O)(=O)c2ccccc2)cs1 [GAB-001] | – | > 50 µM | 40.3 ± 1.3 µM | 23.7 ± 2.7 µM | 55% | KD IRS1 (human IRS1 PH domain; [3]): not to IRS1 PH domain; Ki (human GAB1 PH domain [2]): 9.4 µM and 9.38 µM; Exp. ΔGbind (human GAB1 PH domain [1]): -6.91 kcal/mol |
| Cn1cnc(S(=O)(=O)Nc2ccccc2SCCS(=O)(=O)c2ccc(Cl)cc2)c1 [GAB-002] | 2.1 ± 0.1 µM | 16.4 ± 4.3 µM | 143 ± 11.6 µM | 138 ± 6.9 µM | 32% | – |
| O=c1[nH]nc(SCc2csc(-c3ccccc3)n2)n1Cc1ccco1 [GAB-004] | 2.2 ± 1.1 µM | > 50 µM | 66.6 ± 4.6 µM | 19.4 ± 2.9 µM | 81% | Exp. ΔGbind (human GAB1 PH domain [1]): -7.78 kcal/mol |
| CS(=O)(=NS(=O)(=O)c1ccc(-c2ccccn2)s1)c1ccc(Cl)cc1 (stereo not shown) [GAB-005] | > 50 µM | > 50 µM | > 200 µM | > 200 µM | 6% | – |
| O=S(=O)(NCc1csc(-c2cccs2)n1)c1ccc(N2CCOCC2)nc1 [GAB-008] | > 50 µM | 16.2 ± 1.7 µM | > 200 µM | 43.2 ± 3.2 µM | 8% | – |
| Cc1noc(C)c1NC(=O)NCc1csc(-c2cccs2)n1 [GAB-009] | > 50 µM | > 50 µM | 163 ± 6 µM | 97.6 ± 6.1 µM | 38% | – |
| Cn1c(Cc2ccsc2)nnc1SCC(=O)Nc1cc(Cl)cc(Cl)c1 [GAB-011] | > 50 µM | > 50 µM | > 200 µM | > 200 µM | 24% | – |
| O=C(O)c1ccccc1C(=O)Nc1ccccc1SCCS(=O)(=O)c1ccc(Cl)cc1 [GAB-012] | > 50 µM | > 50 µM | > 200 µM | 119 ± 3.6 µM | 43% | killing of MDA-MB-231 cells at 50 µM (MDA-MB-231): did not effectively kill; toxicity to MDA-MB-231 at 100 µM (MDA-MB-231): not for T47D and MDA-MB-231; toxicity to MCF-10A at 100 µM (MCF-10A): toxic; killing of T47D cells at 50 µM (T47D): did not effectively kill; toxicity to T47D at 100 µM (T47D): not for T47D and MDA-MB-231 |
| COc1cc(NS(=O)(=O)c2ccc(NS(=O)(=O)c3c(C)noc3C)cc2)nc(OC)n1 [GAB-013] | > 50 µM | > 50 µM | > 200 µM | > 200 µM | 27% | killing of MDA-MB-231 cells at 50 µM (MDA-MB-231): did not effectively kill; toxicity to MDA-MB-231 at 100 µM (MDA-MB-231): not for T47D and MDA-MB-231; toxicity to MCF-10A at 100 µM (MCF-10A): toxic; killing of T47D cells at 50 µM (T47D): did not effectively kill; toxicity to T47D at 100 µM (T47D): not for T47D and MDA-MB-231 |
| Cc1nnc(NS(=O)(=O)c2ccc(NS(=O)(=O)c3ccc4ccccc4c3)cc2)s1 [GAB-014] | > 50 µM | > 50 µM | – | 178 ± 3.9 µM | 42% | IC50 (MDA-MB-468 cell line): 69.9 ± 0.1 µM |
| CCCCCCCCCCCCc1ccc(S(=O)(=O)Nc2nnc(CC(=O)O)s2)cc1 [GAB-015] | – | 0.05 µM | – | 125 ± 5.4 µM | 77% | Ki (human GAB1 PH domain [2]): 13.1 ± 1.5 µM |
| CCc1ccc(C(=O)OC)cc1CSc1nnc(-c2ccc(C(F)(F)F)cc2)n1Cc1ccoc1 [GAB-019] | – | – | – | 39.4 ± 6.2 µM | 91% | – |
| CCCCCCCCCCCCc1ccc(S(=O)(=O)Nc2nncs2)cc1 [GAB-020] | 1.33 µM | – | – | – | 87% | – |

Continued, in another order:

| Kd (human GAB1 PH domain [1]) | Kd (human IRS1 PH domain; [3]) | IC50 (MDA-MB-231) | IC50 (T47D) | Compound | % pGAB1 inhibition (phospho-Tyr627 GAB1) | also measured |
| --- | --- | --- | --- | --- | --- | --- |
| > 50 µM | > 50 µM | – | 101 ± 1.8 µM | Cc1cc2ncc(-c3cnc(SCCS(=O)(=O)c4ccc(Cl)cc4)nc3)c(C)n2n1 [GAB-006] | 16% | – |
| 42.3 ± 8.9 µM | 1.6 ± 0.2 µM | 4.6 ± 0.7 µM | 20.1 ± 4.3 µM | CS(=O)(=O)CCSc1ncccc1C(=O)Sc1ccc(Cl)cc1Cl [GAB-007] | 53% | Exp. ΔGbind (human IRS1 PH domain): -7.93 kcal/mol; Exp. ΔGbind (human GAB1 PH domain [1]): -6.01 kcal/mol |
| > 50 µM | 0.12 ± 0.02 µM | 66 ± 4.4 µM | 23.8 ± 4.2 µM | Cc1onc(-c2ccccc2)c1-c1nc(CSc2nc3ccccc3[nH]2)no1 [GAB-010] | 92% | Exp. ΔGbind (human IRS1 PH domain): -9.51 kcal/mol |
| 0.9 ± 0.1 µM | 0.15 µM | – | – | CCCCCCCCCCCCc1ccc(S(=O)(=O)Nc2nnc(CC(=O)OCC)s2)cc1 [GAB-016] | – | Exp. ΔGbind (human IRS1 PH domain): -9.38 kcal/mol; targeting of GAB2 PH domain (GAB2 PH domain): targets GAB2 PH domain as well; Exp. ΔGbind (human GAB1 PH domain [1]): -8.31 kcal/mol; KD GAB1 (human GAB1 PH domain [1]): nanomolar binding affinity |
| 0.68 ± 0.03 µM | 0.05 µM | – | – | CCCCCCCCCCCCc1ccc(S(=O)(=O)Nc2nnc(C(=O)OCC)s2)cc1 [GAB-017] | – | Exp. ΔGbind (human GAB1 PH domain [1]): -8.47 kcal/mol; KD GAB1 (human GAB1 PH domain [1]): nanomolar binding affinity |
| – | > 50 µM | – | 185 ± 2.5 µM | CCCCCCCCCCCCc1ccc(S(=O)(=O)Nc2nnc(S(N)(=O)=O)s2)cc1 [GAB-018] | 71% | killing of MDA-MB-231 cells at 50 µM (MDA-MB-231): did not effectively kill; Ki (human GAB1 PH domain [2]): 36.6 ± 5 µM; killing of T47D cells at 50 µM (T47D): did not effectively kill |
